US20100063089A1, “SUCCINATE SALT OF 2-((4-(1-METHYL-4-PYRIDIN-4-YL)-1H-PYRAZOL-3-YL)PHENOXY)METHYL)QUINOLINE” (PFIZER INC, priority 2006, published 2010)

Columns and labels:
[1] = solid-state properties for formulation (deliquescence, hygroscopicity); assay type: physicochemical; settings: solid salt
[2] = isothermal moisture sorption test; assay type: physicochemical; settings: at 90±2% relative humidity; isothermal 25.1±0.1° C.; conducted from approximately 1% to 90% (±2%) humidity
Method: In another embodiment, the succinate salt increases in weight by less than 0.5% at 90±2% relative humidity in an isothermal (25.1±0.1° C.) moisture sorption test conducted from approximately 1% to 90% (±2%) humidity.

In the case of Cn1cc(-c2ccncc2)c(-c2ccc(OCc3ccc4ccccc4n3)cc2)n1.O=C(O)CCC(=O)O [succinate salt, succinate salt of 2-((4-(1-methyl-4-(pyridin-4-yl)-1H-pyrazol-3-yl)phenoxy)methyl)quinoline], the deliquescence [1] is reported as “not deliquescent”, the hygroscopicity [1] is reported as “non-hygroscopic” and the “increase in weight in moisture sorption test” value [2] is reported as “less than 0.5%”.
